The NIST ThermoML archive (doi:10.1016/j.jct.2015.06.036)

Assay: xn = mol fraction of the nth substance listed
Details: 101 kPa, Liquid; for viscosity: Falling or rolling sphere viscometry; for speed of sound: Sing-around technique in a fixed-path interferometer; for mass density: Vibrating tube method

CCCCn1cc[n+](C)c1.F[B-](F)(F)F [1-butyl-3-methylimidazolium tetrafluoroborate] + CO
Details | mass density [kg/m3] | speed of sound [m/s] | viscosity [mPa·s]
278.15 K, x1 = 0.0501 | 893 | 1239 | 1.07
278.15 K, x1 = 0.0999 | 954.2 | 1294 | 1.7
278.15 K, x1 = 0.1498 | 999.7 | 1341 | 2.36
278.15 K, x1 = 0.2 | 1035.5 | 1383 | 3.35
278.15 K, x1 = 0.2999 | 1087.2 | 1447 | 6.22
278.15 K, x1 = 0.4008 | 1122.5 | 1493 | 11.1
278.15 K, x1 = 0.4995 | 1147.9 | 1527 | 20.6
278.15 K, x1 = 0.5999 | 1167.9 | 1552 | 35.3
278.15 K, x1 = 0.6991 | 1183.3 | 1573 | 60.2
278.15 K, x1 = 0.8006 | 1196.4 | 1589 | 108
278.15 K, x1 = 0.8494 | 1201.6 | 1596 | 143
278.15 K, x1 = 0.9006 | 1206.9 | 1603 | 196
278.15 K, x1 = 0.9501 | 1211.4 | 1611 | 264
278.15 K, x1 = 1 | 1215.9 | 1615 | 361
288.15 K, x1 = 0.0501 | 884 | 1209 | 0.905
288.15 K, x1 = 0.0999 | 945.5 | 1266 | 1.4
288.15 K, x1 = 0.1498 | 991.2 | 1315 | 1.91
288.15 K, x1 = 0.2 | 1027.2 | 1356 | 2.65
288.15 K, x1 = 0.2999 | 1079.1 | 1422 | 4.73
288.15 K, x1 = 0.4008 | 1114.6 | 1468 | 8.1
288.15 K, x1 = 0.4995 | 1140.2 | 1502 | 14.5
288.15 K, x1 = 0.5999 | 1160.3 | 1527 | 23.7
288.15 K, x1 = 0.6991 | 1175.9 | 1548 | 38.2
288.15 K, x1 = 0.8006 | 1189 | 1564 | 64.8
288.15 K, x1 = 0.8494 | 1194.3 | 1571 | 82.5
288.15 K, x1 = 0.9006 | 1199.6 | 1578 | 110
288.15 K, x1 = 0.9501 | 1204 | 1586 | 143
288.15 K, x1 = 1 | 1208.5 | 1590 | 186
298.15 K, x1 = 0.0501 | 875 | 1179 | 0.779
298.15 K, x1 = 0.0999 | 936.8 | 1238 | 1.18
298.15 K, x1 = 0.1498 | 982.8 | 1288 | 1.58
298.15 K, x1 = 0.2 | 1018.9 | 1331 | 2.16
298.15 K, x1 = 0.2999 | 1071 | 1397 | 3.73
298.15 K, x1 = 0.4008 | 1106.8 | 1443 | 6.18
298.15 K, x1 = 0.4995 | 1132.5 | 1477 | 10.7
298.15 K, x1 = 0.5999 | 1152.8 | 1503 | 16.9
298.15 K, x1 = 0.6991 | 1168.5 | 1524 | 25.8
298.15 K, x1 = 0.8006 | 1181.7 | 1540 | 41.5
298.15 K, x1 = 0.8494 | 1187.1 | 1547 | 51.6
298.15 K, x1 = 0.9006 | 1192.4 | 1554 | 66.9
298.15 K, x1 = 0.9501 | 1196.9 | 1562 | 83.8
298.15 K, x1 = 1 | 1201.3 | 1565 | 105
308.15 K, x1 = 0.0501 | 866 | 1150 | 0.679
308.15 K, x1 = 0.0999 | 928.1 | 1211 | 1.01
308.15 K, x1 = 0.1498 | 974.3 | 1262 | 1.33
308.15 K, x1 = 0.2 | 1010.6 | 1305 | 1.8
308.15 K, x1 = 0.2999 | 1063.1 | 1372 | 3.02
308.15 K, x1 = 0.4008 | 1099 | 1418 | 4.88
308.15 K, x1 = 0.4995 | 1124.9 | 1454 | 8.17
308.15 K, x1 = 0.5999 | 1145.3 | 1479 | 12.7
308.15 K, x1 = 0.6991 | 1161.1 | 1500 | 18.5
308.15 K, x1 = 0.8006 | 1174.5 | 1517 | 28.4
308.15 K, x1 = 0.8494 | 1179.9 | 1524 | 34.4
308.15 K, x1 = 0.9006 | 1185.3 | 1531 | 43.3
308.15 K, x1 = 0.9501 | 1189.8 | 1538 | 53.3
308.15 K, x1 = 1 | 1194.2 | 1542 | 64.8
318.15 K, x1 = 0.0501 | 857 | 1121 | 0.6
318.15 K, x1 = 0.0999 | 919.4 | 1184 | 0.873
318.15 K, x1 = 0.1498 | 965.8 | 1236 | 1.14
318.15 K, x1 = 0.2 | 1002.4 | 1280 | 1.52
318.15 K, x1 = 0.2999 | 1055.1 | 1348 | 2.51
318.15 K, x1 = 0.4008 | 1091.3 | 1394 | 3.96
318.15 K, x1 = 0.4995 | 1117.4 | 1430 | 6.45
318.15 K, x1 = 0.5999 | 1137.9 | 1456 | 9.83
318.15 K, x1 = 0.6991 | 1153.8 | 1477 | 13.7
318.15 K, x1 = 0.8006 | 1167.3 | 1493 | 20.4
318.15 K, x1 = 0.8494 | 1172.7 | 1501 | 24.2
318.15 K, x1 = 0.9006 | 1178.2 | 1508 | 30
318.15 K, x1 = 0.9501 | 1182.7 | 1515 | 36
318.15 K, x1 = 1 | 1187.2 | 1519 | 42.7
